Laboratory results from paper PMC8718007, “Decreased glutamate transport in acivicin resistant Leishmania tarentolae” (PLoS Neglected Tropical Diseases, 2021).

Target: LtaPh_2202300 (AAT22) (Leishmania tarentolae, UniProt A0A640KGB0)
Assay: time-dependent uptake of 3H-glutamate, null mutant vs control strain
Type: cell-based
Details: 0.1 mM glutamate in PBS, room temperature; labelled compound

Chain of LtaPh_2202300 (AAT22) (A0A640KGB0 entry or part of it): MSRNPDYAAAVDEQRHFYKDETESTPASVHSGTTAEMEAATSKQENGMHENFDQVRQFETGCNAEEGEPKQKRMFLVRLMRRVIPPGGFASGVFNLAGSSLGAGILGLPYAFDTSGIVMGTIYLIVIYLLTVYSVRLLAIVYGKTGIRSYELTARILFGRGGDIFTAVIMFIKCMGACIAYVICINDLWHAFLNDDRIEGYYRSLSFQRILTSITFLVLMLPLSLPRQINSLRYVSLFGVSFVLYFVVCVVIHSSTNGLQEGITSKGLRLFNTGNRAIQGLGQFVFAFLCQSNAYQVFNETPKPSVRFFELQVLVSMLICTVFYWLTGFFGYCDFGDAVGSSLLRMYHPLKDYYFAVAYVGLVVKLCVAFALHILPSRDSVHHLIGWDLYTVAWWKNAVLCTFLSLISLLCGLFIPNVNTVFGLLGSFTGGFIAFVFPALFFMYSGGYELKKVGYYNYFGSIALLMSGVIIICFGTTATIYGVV

**Q.** With `N[C@@H](CCC(=O)O)C(=O)O` [glutamate] as the compound, how does the uptake read?
**A.** The uptake was “The accumulation of glutamate but not glutamine was greatly diminished in that recombinant strain”.
